Consider 17 compounds from PubChem BioAssay AID328 (DTP/NCI, 2004).

For this assay, the system named is BDF1 mice, P388 leukemia ip, median survival T/C. Briefly: NCI In Vivo Anticancer Drug Screen. Data for tumor model P388 Leukemia (intraperitoneal) in B6D2F1 (BDF1) mice. The settings on record: endpoint: median survival time, higher = longer survival. An outline of the steps:
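Mice carrying the transplantable tumour receive compound or vehicle. Survival is followed in each arm, and the treated measure is divided by the vehicle measure.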

The mark [1] stands for this setting: dose: 25.0 mg/kg/injection, schedule: Q01DX009 (ip), vehicle: Klucel (hydroxypropylcellulose) (HPC).
[2] abbreviates: dose: 100.0 mg/kg/injection, schedule: Q01DX009 (ip), vehicle: saline.
Setting [3] is: dose: 200.0 mg/kg/injection, schedule: Q01DX009 (ip), vehicle: saline.
Setting [4] is: dose: 25.0 mg/kg/injection, schedule: Q01DX009 (ip), vehicle: saline with Tween-80.
Where [5] appears, read: dose: 50.0 mg/kg/injection, schedule: Q01DX009 (ip), vehicle: saline with Tween-80.
The mark [6] stands for this setting: dose: 100.0 mg/kg/injection, schedule: Q01DX009 (ip), vehicle: saline with Tween-80.
Setting [7] is: dose: 3.12 mg/kg/injection, schedule: Q01DX009 (ip), vehicle: saline with Tween-80.
Where [8] appears, read: dose: 6.25 mg/kg/injection, schedule: Q01DX009 (ip), vehicle: saline with Tween-80.
Setting [9] is: dose: 100.0 mg/kg/injection, schedule: Q04DX003 (ip), vehicle: saline with Tween-80.
[10] abbreviates: dose: 50.0 mg/kg/injection, schedule: Q04DX003 (ip), vehicle: saline with Tween-80.

Where “and” joins values, the source holds several entries; their conditions need not be identical. Equal entries are not always repeated. Inconclusive results and toxic doses are left out. Starred links: 1 amine or outer side, 2 acyl side, 3 side chain; linkers in the order of their positions; H or OH if unused. Positions of bridges follow the written chain, without caps; N, C: chain ends. Non-standard residues stand in square brackets, D forms with d. Residues, ends and D or L forms follow the SMILES beside them. ξ: configuration not given here. *: point of attachment. ξOrn(4,5-diOH) = O=C(C(CC(O)C(O)N[*:3])N[*:1])[*:2]; ξhTyr(βξ-OH,γξ-OH) = NC(C(=O)O)C(O)C(O)c1ccc(O)cc1; ξPro(3ξ-OH,4ξ-Me) = CC1CNC(C(=O)O)C1O; X4 = CCCCC/C=C/C/C=C\CCCCCCCC(=O)*; Hyp = O=C(O)[CH]1C[CH](O)CN1

For the compound `O=NN(CCF)C(=O)NC12CC3CC(CC(C3)C1)C2`, the T/C is, setting by setting: (dose: 5.5 mg/kg/injection, schedule: Q04DX003 (ip), vehicle: Klucel (hydroxypropylcellulose) (HPC)) 104 % of control; (dose: 11.0 mg/kg/injection, schedule: Q04DX003 (ip), vehicle: Klucel (hydroxypropylcellulose) (HPC)) 112 % of control; (dose: 12.0 mg/kg/injection, schedule: Q01DX009 (ip), vehicle: Klucel (hydroxypropylcellulose) (HPC)) 158 % of control; (dose: 22.0 mg/kg/injection, schedule: Q04DX003 (ip), vehicle: Klucel (hydroxypropylcellulose) (HPC)) 162 % of control and 180 % of control; under setting [1], 250 % of control; (dose: 33.0 mg/kg/injection, schedule: Q04DX003 (ip), vehicle: Klucel (hydroxypropylcellulose) (HPC)) 240 % of control. Besides, the T/C (dose: 50.0 mg/kg/injection, schedule: Q04DX003 (ip), vehicle: Klucel (hydroxypropylcellulose) (HPC)) was 245 % of control and 300 % of control.
Take `O=[N+]([O-])c1ccc(N/N=C/CC(O)CO)c([N+](=O)[O-])c1` (stereo not given): the T/C is 100 % of control under setting [2] and 120 % of control under setting [3].
In the case of `COC(=O)C1C(O)C(C)C(O)C(C)C=C(C)C2=C3C(=C(C)C(=O)c4c(O)c(c(C)c(OC(C)=O)c43)NC(=O)C(C)=C/C=C\C(C)C(O)C(C)C1O)OCO2` (stereo not given), the T/C under setting [1] is 101 % of control; the T/C under setting [4] is 90 % of control; the T/C (dose: 50.0 mg/kg/injection, schedule: Q01DX009 (ip), vehicle: Klucel (hydroxypropylcellulose) (HPC)) was 110 % of control and 97 % of control; the T/C under setting [5] is 109 % of control; the T/C (dose: 100.0 mg/kg/injection, schedule: Q01DX009 (ip), vehicle: Klucel (hydroxypropylcellulose) (HPC)) was 101 % of control and 113 % of control; the T/C under setting [6] is 90 % of control.
Take `CP(O)(=S)C1CCCCC1` (stereo not given) (tested in a mixture with another compound): the T/C reads like this: (dose: 50.0 mg/kg/injection, schedule: Q01DX005 (ip), vehicle: saline) 94 % of control; (dose: 100.0 mg/kg/injection, schedule: Q01DX005 (ip), vehicle: saline) 91 % of control; (dose: 200.0 mg/kg/injection, schedule: Q01DX005 (ip), vehicle: saline) 90 % of control.
With `CC1([CH2][Hg][Cl])Cc2ccccc2O1` (stereo not given), the T/C by setting is: (dose: 1.56 mg/kg/injection, schedule: Q04DX003 (ip), vehicle: saline with Tween-80) 92 % of control; (dose: 3.13 mg/kg/injection, schedule: Q04DX003 (ip), vehicle: saline with Tween-80) 88 % of control.
On to `C#CCOc1ccccc1/C(Cl)=N/Nc1ccc([N+](=O)[O-])cc1[N+](=O)[O-]`, for which the T/C runs as follows: (dose: 1.56 mg/kg/injection, schedule: Q01DX009 (ip), vehicle: saline with Tween-80) 106 % of control; under setting [7], 97 % of control; under setting [8], 100 % of control.
`CC(C)c1ccc(O)c(=O)cc1`: the T/C (dose: 40.0 mg/kg/injection, schedule: Q01DX010 (ip), vehicle: carboxymethylcellulose (CMC)) was 95 % of control; the T/C (dose: 80.0 mg/kg/injection, schedule: Q01DX010 (ip), vehicle: carboxymethylcellulose (CMC)) was 100 % of control; the T/C (dose: 160.0 mg/kg/injection, schedule: Q01DX010 (ip), vehicle: carboxymethylcellulose (CMC)) was 100 % of control.
For `O=[N+]([O-])c1cccc(CS(=O)(=O)c2ccccc2)c1-c1c(CS(=O)(=O)c2ccccc2)cccc1[N+](=O)[O-]`, the T/C is 95 % of control (dose: 100.0 mg/kg/injection, schedule: Q04DX003 (ip), vehicle: saline sonified); 100 % of control (dose: 200.0 mg/kg/injection, schedule: Q04DX003 (ip), vehicle: saline sonified); 86 % of control (dose: 400.0 mg/kg/injection, schedule: Q04DX003 (ip), vehicle: saline sonified).
Turning to `CCN(CC)CC(C)=C(B1OC(C)(C)C(C)(C)O1)B1OC(C)(C)C(C)(C)O1`, the T/C is, setting by setting: (dose: 50.0 mg/kg/injection, schedule: Q01DX001 (ip), vehicle: saline) 110 % of control; (dose: 100.0 mg/kg/injection, schedule: Q01DX001 (ip), vehicle: saline) 105 % of control; (dose: 200.0 mg/kg/injection, schedule: Q01DX001 (ip), vehicle: saline) 100 % of control.
On to `NC(c1ccccc1)C(N)c1ccccc1` (stereo not given), for which the T/C under setting [9] was 95 % of control.
As to `CN1CCN(C(=O)c2ccc(Cl)c(Cl)c2)CC1`, the T/C under setting [7] was 103 % of control; the T/C under setting [8] is 99 % of control; the T/C (dose: 12.5 mg/kg/injection, schedule: Q01DX009 (ip), vehicle: saline with Tween-80) is 103 % of control; the T/C (dose: 12.5 mg/kg/injection, schedule: Q04DX003 (ip), vehicle: saline with Tween-80) was 108 % of control; the T/C under setting [4] was 88 % of control; the T/C (dose: 25.0 mg/kg/injection, schedule: Q04DX003 (ip), vehicle: saline with Tween-80) was 97 % of control. Moreover, the T/C runs as follows: under setting [5], 99 % of control; under setting [10], 91 % of control; under setting [6], 105 % of control; under setting [9], 97 % of control.
With `CCc1nnc2ncccn12`, the T/C runs as follows: (dose: 50.0 mg/kg/injection, schedule: Q01DX009 (ip), vehicle: saline) 97 % of control and 102 % of control and 104 % of control; under setting [2], 104 % of control and 107 % of control; under setting [3], 91 % of control and 100 % of control.
For `CCCCC/C=C/C/C=C\CCCCCCCC(=O)NC1CC(O)C(O)NC(=O)C2C(O)C(C)CN2C(=O)C(C(C)O)NC(=O)C(C(O)C(O)c2ccc(O)cc2)NC(=O)C2CC(O)CN2C(=O)C(C(C)O)NC1=O` (stereo not drawn) (X4-[ξOrn(4,5-diOH)]T[Hyp][ξhTyr(βξ-OH,γξ-OH)]T[ξPro(3ξ-OH,4ξ-Me)]; lactam 1-C; configuration not given here), the T/C by setting is: (dose: 0.5 mg/kg/injection, schedule: Q01DX009 (ip), vehicle: lactate) 100 % of control; (dose: 1.0 mg/kg/injection, schedule: Q01DX009 (ip), vehicle: lactate) 102 % of control; (dose: 2.0 mg/kg/injection, schedule: Q01DX009 (ip), vehicle: lactate) 102 % of control; (dose: 4.0 mg/kg/injection, schedule: Q01DX009 (ip), vehicle: lactate) 100 % of control.
In the case of `c1ccc(CN2CCN(Cc3ccccc3)C2c2ccccc2)cc1`, the T/C under setting [4] is 103 % of control; the T/C under setting [5] is 97 % of control; the T/C under setting [10] was 107 % of control; the T/C under setting [6] is 97 % of control; the T/C under setting [9] is 107 % of control; the T/C (dose: 200.0 mg/kg/injection, schedule: Q01DX009 (ip), vehicle: saline with Tween-80) was 104 % of control. Besides, the T/C is, setting by setting: (dose: 200.0 mg/kg/injection, schedule: Q04DX003 (ip), vehicle: saline with Tween-80) 103 % of control; (dose: 400.0 mg/kg/injection, schedule: Q01DX009 (ip), vehicle: saline with Tween-80) 106 % of control; (dose: 400.0 mg/kg/injection, schedule: Q04DX003 (ip), vehicle: saline with Tween-80) 96 % of control.
With `CCC12C=CCN3CCC4(c5cc(C(c6ccc(OC)cc6)c6cc7ccccc7[nH]6)c(OC)cc5N(C)C4C(O)(CO)C1O)C32` (stereo not given), the T/C is, setting by setting: (dose: 2.0 mg/kg/injection, schedule: Q01DX009 (ip), vehicle: saline) 104 % of control; (dose: 4.0 mg/kg/injection, schedule: Q01DX009 (ip), vehicle: saline) 98 % of control; (dose: 8.0 mg/kg/injection, schedule: Q01DX009 (ip), vehicle: saline) 95 % of control; (dose: 16.0 mg/kg/injection, schedule: Q01DX009 (ip), vehicle: saline) 98 % of control; (dose: 32.0 mg/kg/injection, schedule: Q01DX009 (ip), vehicle: saline) 104 % of control.
As for `Clc1ccc(N=Cc2ccc(C=Nc3ccc(Cl)c(Cl)c3)cc2)cc1Cl`, the T/C reads like this: (dose: 100.0 mg/kg/injection, schedule: Q04DX003 (ip), vehicle: Klucel (hydroxypropylcellulose) (HPC)) 100 % of control; (dose: 200.0 mg/kg/injection, schedule: Q04DX003 (ip), vehicle: Klucel (hydroxypropylcellulose) (HPC)) 90 % of control; (dose: 400.0 mg/kg/injection, schedule: Q04DX003 (ip), vehicle: Klucel (hydroxypropylcellulose) (HPC)) 100 % of control.
With `CCC[CH2][Sn]([CH2]CCC)([CH2]CCC)[S]C(=S)NCCNC(=S)[S][Sn]([CH2]CCC)([CH2]CCC)[CH2]CCC`, the T/C by setting is: (dose: 0.78 mg/kg/injection, schedule: Q01DX010 (ip), vehicle: saline) 113 % of control; (dose: 1.56 mg/kg/injection, schedule: Q01DX010 (ip), vehicle: saline) 109 % of control; (dose: 3.13 mg/kg/injection, schedule: Q01DX010 (ip), vehicle: saline) 109 % of control.
